Measurements: ChEMBL document CHEMBL3882724 (2013)
pIC50: −log10 of the molar value.

Tests used:
[1] = target: T1, Steroid 17-alpha-hydroxylase/17,20 lyase (Homo sapiens, UniProt P05093); experiment: Inhibition of CYP17 in human testicular microsomes using 17alpha-hydroxypregnenolone as substrate assessed as decrease in DHEA levels at 1 nM after 90 mins by ELISA relative to control; set-up: species or system Testis
T1 sequence (P05093 whole entry): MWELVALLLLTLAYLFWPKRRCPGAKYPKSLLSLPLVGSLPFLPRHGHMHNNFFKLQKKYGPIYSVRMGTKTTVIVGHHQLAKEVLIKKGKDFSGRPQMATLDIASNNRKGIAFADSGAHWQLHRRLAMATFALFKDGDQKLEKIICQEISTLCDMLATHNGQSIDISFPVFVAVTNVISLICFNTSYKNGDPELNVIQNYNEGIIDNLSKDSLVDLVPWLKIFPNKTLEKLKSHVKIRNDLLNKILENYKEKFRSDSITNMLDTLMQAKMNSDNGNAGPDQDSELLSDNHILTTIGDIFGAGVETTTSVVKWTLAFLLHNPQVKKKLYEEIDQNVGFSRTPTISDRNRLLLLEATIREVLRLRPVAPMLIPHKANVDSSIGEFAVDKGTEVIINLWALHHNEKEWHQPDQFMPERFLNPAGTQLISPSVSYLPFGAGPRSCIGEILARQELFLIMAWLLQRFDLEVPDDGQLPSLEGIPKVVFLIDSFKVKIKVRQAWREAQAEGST

[2] = Half life in human liver microsomes at 1 uM by LC-MS/MS analysis
[3] = target: T2, CYP21 (steroid 21-hydroxylase) (Homo sapiens, UniProt P08686); experiment: Inhibition of human CYP21 transfected in HEK293 cells assessed as decrease in conversion of progesterone to 11-deoxycorticosterone preincubated for 5 hrs followed by progesterone addition measured after 20 hrs by ELISA; type: cell-based; set-up: concentration or dose not given beside the values; conditions: HEK293 cells transfected with human CYP21, probe progesterone
T2 sequence (P08686 whole entry): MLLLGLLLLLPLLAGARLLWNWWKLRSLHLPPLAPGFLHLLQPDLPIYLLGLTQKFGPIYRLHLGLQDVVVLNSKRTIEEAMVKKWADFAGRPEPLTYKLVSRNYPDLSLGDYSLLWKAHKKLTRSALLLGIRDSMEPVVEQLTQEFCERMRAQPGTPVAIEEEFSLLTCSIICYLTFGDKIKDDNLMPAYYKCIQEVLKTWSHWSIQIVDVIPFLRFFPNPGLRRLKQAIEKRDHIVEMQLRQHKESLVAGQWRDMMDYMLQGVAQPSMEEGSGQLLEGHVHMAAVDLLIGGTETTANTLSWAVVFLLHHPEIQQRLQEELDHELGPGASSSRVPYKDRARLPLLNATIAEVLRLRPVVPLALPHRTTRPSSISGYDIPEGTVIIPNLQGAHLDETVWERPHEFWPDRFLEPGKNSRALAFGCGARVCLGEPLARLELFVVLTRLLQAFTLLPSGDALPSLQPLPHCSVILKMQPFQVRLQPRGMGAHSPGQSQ

[4] = target: T1, Steroid 17-alpha-hydroxylase/17,20 lyase; experiment: Inhibition of CYP17 in human H295R cells assessed as decrease in testosterone levels after 24 hrs by ELISA; type: cell-based
[5] = target: T1, Steroid 17-alpha-hydroxylase/17,20 lyase; experiment: Inhibition of CYP17 in human testicular microsomes using 17alpha-hydroxypregnenolone as substrate assessed as decrease in DHEA levels after 90 mins by ELISA; set-up: species or system Testis
[6] = target: T1, Steroid 17-alpha-hydroxylase/17,20 lyase; experiment: Inhibition of CYP17 in human testicular microsomes using 17alpha-hydroxypregnenolone as substrate assessed as decrease in DHEA levels at 10 nM after 90 mins by ELISA relative to control; set-up: species or system Testis; conditions: 1.5 h
[7] = Half life in rat liver microsomes at 1 uM by LC-MS/MS analysis

| SMILES | pIC50 [1] | half-life at 1 µM [2] | inhibition at 20 h [3] | pIC50 [4] | pIC50 [5] | inhibition at 0.01 µM [6] | half-life at 1 µM [7] |
| --- | --- | --- | --- | --- | --- | --- | --- |
| C[C@]12CC[C@H]3[C@@H](CC4(CC4)C4=CC(=O)CC[C@@]43C)C1=CC=C2c1cccnc1 | ≥ 8.00 |  |  |  |  |  |  |
| CN1CC[C@@]2(C)C(=CC1=O)CC[C@H]1C3=CC=C(c4cncc(F)c4)[C@@]3(C)CC[C@@H]12 | < 7.00 |  |  |  |  |  |  |
| CC(=O)N[C@@H]1CC[C@@]2(C)C(=CC[C@@H]3[C@@H]2CC[C@]2(C)C(c4cccnc4)=CC[C@@H]32)C1 |  | 1 to 50 min | ≥ 50% | ≥ 7.82 | ≥ 7.96 |  |  |
| CC1=C2CC[C@H]3C4=CC=C(c5cccnc5)[C@@]4(C)CC[C@@H]3[C@@]2(C)CCC1=O | < 7.00 |  | ≥ 50% |  |  |  |  |
| C[C@]12CC[C@H]3[C@@H](CC4CC45C[C@@H](O)CC[C@]35C)[C@@H]1CC=C2c1cccnc1 (some centres not stated) |  | 1 to 50 min | ≥ 50% | ≥ 7.82 | ≥ 7.96 |  |  |
| CC(=O)O[C@H]1CC[C@@]2(C)[C@@H](CC[C@@H]3[C@@H]2CC[C@]2(C)C(n4ccnn4)=CC[C@@H]32)C1 |  |  |  | ≥ 7.82 | ≥ 7.96 | ≥ 80% |  |
| C[C@]12CC/C(=N\O)C=C1C1(CC1)C[C@@H]1[C@@H]2CC[C@]2(C)C(c3cccnc3)=CC[C@@H]12 | < 7.00 |  | 10 to 50% |  |  |  |  |
| CN1CC[C@@]2(C)C(=CC1=O)C1CC1[C@H]1C3=CC=C(c4cccnc4)[C@@]3(C)CC[C@@H]12 (some centres not stated) | 7.00 to 8.00 |  |  |  |  |  |  |
| C=C1C[C@H]2C3=CC=C(c4cccnc4)[C@@]3(C)CC[C@@H]2[C@@]2(C)C=CC(=O)C=C12 | ≥ 8.00 | 1 to 50 min |  |  |  |  |  |
| C[C@]12CC[C@H]3[C@@H](CC=C4C[C@@H](O)CC[C@@]43C)C1=CC=C2c1cncc(F)c1 |  | 1 to 50 min | ≥ 50% | ≥ 7.82 | ≥ 7.96 |  |  |
| CC1C[C@@H]2[C@H](CC[C@]3(C)C(c4cccnc4)CC[C@@H]23)[C@@]2(C)CCC(=O)C=C12 (some centres not stated) | ≥ 8.00 | 1 to 50 min |  |  |  |  |  |
| CC1C[C@@H]2[C@H](CC[C@]3(C)C(c4cncc(F)c4)=CC[C@@H]23)[C@@]2(C)C=CC(=O)C=C12 (some centres not stated) | 7.00 to 8.00 |  | ≥ 50% |  | ≥ 7.96 |  |  |
| C[C@]12CC[C@H]3[C@@H](CC(C4CC4)C4=CC(=O)CC[C@@]43C)C1=CC=C2c1cccnc1 (some centres not stated) | < 7.00 |  | 10 to 50% |  |  |  |  |
| C[C@]12CC[C@H]3[C@@H](CC[C@H]4C[C@@H](O)CC[C@@]43C)C1=CC=C2n1ccnc1 |  | ≥ 50 min |  | ≥ 7.82 | ≥ 7.96 | ≥ 80% | 10 to 60 min |
| C[C@]12CCNC(=O)C=C1CC[C@@H]1[C@@H]2CC[C@]2(C)C(c3cncc(C(F)F)c3)=CC[C@@H]12 |  | 1 to 50 min | ≥ 50% | ≥ 7.82 | ≥ 7.96 |  |  |
| CCC1C[C@@H]2[C@H](CC[C@]3(C)C(c4cccnc4)=CC[C@@H]23)[C@@]2(C)CCC(=O)C=C12 (some centres not stated) | 7.00 to 8.00 |  | 10 to 50% |  |  |  |  |
| C[C@]12CC(O)CC1CC[C@@H]1[C@@H]2CC[C@]2(C)C(c3cncc(F)c3)=CC[C@@H]12 (some centres not stated) |  | ≥ 50 min | 10 to 50% | ≥ 7.82 | ≥ 7.96 |  |  |

| SMILES | pIC50 [1] | half-life at 1 µM [2] | inhibition at 20 h [3] | pIC50 [4] | pIC50 [5] | inhibition at 0.01 µM [6] | half-life at 1 µM [7] |
| --- | --- | --- | --- | --- | --- | --- | --- |
| C[C@]12CC(O)CC1CC[C@@H]1[C@@H]2CC[C@]2(C)C(c3cccnc3)=CC[C@@H]12 (some centres not stated) |  | 1 to 50 min | ≥ 50% | ≥ 7.82 | ≥ 7.96 |  |  |
| C=C1C[C@H]2C3=CC=C(c4cccnc4)[C@@]3(C)CC[C@@H]2[C@@]2(C)CCC(=O)C=C12 | 7.00 to 8.00 |  |  |  |  |  |  |
| C[C@]12C=C/C(=N\O)C=C1C1(CC1)C[C@@H]1[C@@H]2CC[C@]2(C)C(c3cccnc3)=CC[C@@H]12 | < 7.00 |  | 10 to 50% |  |  |  |  |
| C[C@]12CCCC(=O)C1CC[C@@H]1[C@@H]2CC[C@]2(C)C(c3cccnc3)=CC[C@@H]12 (some centres not stated) |  |  |  | ≥ 7.82 | ≥ 7.96 | ≥ 80% |  |
| CC1C[C@H]2C3=CC=C(c4cccnc4)[C@@]3(C)CC[C@@H]2[C@@]2(C)CCN(C)C(=O)C=C12 (some centres not stated) | 7.00 to 8.00 |  |  |  |  |  |  |
| C[C@]12CCNC(=O)C=C1C1CC1[C@@H]1[C@@H]2CC[C@]2(C)C(c3cncc(F)c3)=CC[C@@H]12 (some centres not stated) |  | 1 to 50 min | ≥ 50% | ≥ 7.82 | ≥ 7.96 |  |  |
| C[C@]12CCNC(=O)C[C@@H]1CC[C@@H]1[C@@H]2CC[C@]2(C)C(n3ccnn3)=CC[C@@H]12 |  | ≥ 50 min |  | ≥ 7.82 | ≥ 7.96 | ≥ 80% | 10 to 60 min |
| C[C@]12CCC(=O)C=C1C1CC1[C@@H]1[C@@H]2CC[C@]2(C)C(c3cncc(F)c3)=CC[C@@H]12 (some centres not stated) |  | 1 to 50 min | ≥ 50% | ≥ 7.82 | ≥ 7.96 |  |  |
| C[C@]12CC[C@H]3[C@@H](CC(CO)C4=CC(=O)CC[C@@]43C)C1=CC=C2c1cccnc1 (some centres not stated) | < 7.00 |  | ≥ 50% |  | ≥ 7.96 |  |  |
| C[C@]12CC[C@H]3[C@@H](CC(F)C4(O)C[C@@H](O)CC[C@]34C)[C@@H]1CC=C2c1cncc(F)c1 (some centres not stated) |  | 1 to 50 min | ≥ 50% | ≥ 7.82 | ≥ 7.96 |  |  |
| C[C@]12CC[C@H]3[C@@H](CC4(CC4)C4=CC(=O)CC[C@@]43C)C1=CC=C2c1cncc(F)c1 | 7.00 to 8.00 |  |  |  |  |  |  |
| C[C@]12CCC(=O)C=C1C=C[C@@H]1[C@@H]2CC[C@]2(C)C(c3cncc(F)c3)=CC[C@@H]12 |  | 1 to 50 min | ≥ 50% | ≥ 7.82 | ≥ 7.96 |  |  |
| C[C@]12CC[C@H](O)CC1=CC[C@@H]1[C@@H]2CC[C@]2(C)C(c3cncc(C(F)F)c3)=CC[C@@H]12 |  | ≥ 50 min | ≥ 50% | ≥ 7.82 | ≥ 7.96 |  |  |
| COc1cncc(C2=CC=C3[C@@H]4CC=C5C[C@@H](O)CC[C@]5(C)[C@H]4CC[C@]23C)c1 |  | ≥ 50 min |  | ≥ 7.82 | ≥ 7.96 | ≥ 80% | ≥ 50 min |
| C=C1C[C@H]2C3=CC=C(c4cncc(F)c4)[C@@]3(C)CC[C@@H]2[C@@]2(C)CCC(=O)C=C12 | 7.00 to 8.00 |  |  |  |  |  |  |
| CC1CC2C3=CC=C(c4cncc(F)c4)[C@@]3(C)CC[C@@H]2[C@@]2(C)CCN(C)C(=O)C=C12 (single isomer, unassigned) | < 7.00 |  |  |  |  |  |  |
| C[C@]12CCC(=O)C=C1C(F)CC1[C@@H]2CC[C@]2(C)C(c3cccnc3)=CC[C@@H]12 (single isomer, unassigned) |  | 1 to 50 min | ≥ 50% | ≥ 7.82 | ≥ 7.96 |  |  |
